Read-outs that look alike come from different tables or passages of the source. Square brackets hold non-standard residues; d marks the D form. Peptide text beside a SMILES is read from it. * marks the point of attachment. X1 = Cc1ccc(Nc2ncc3c(n2)N(C)C(=O)N(c2cc(C(=O)*)ccc2C)C3)cn1; Ac4c = NC1(C(=O)O)CCC1; Ac3c = NC1(C(=O)O)CC1; Aib = CC(C)(N)C(=O)O
Key:
Type in all cases: biochemical
ABL1 = ABL1 (Homo sapiens, UniProt P00519); test: IC50 inhibitory activity against ABL1 kinase; conditions: read-out: ABL1 IC50
Method: (§1) IC50 values were calculated by measuring the inhibitory activity against LCK, c-Src, p38a/MAPK14, ABL1, DDR1 and FGR kinases of the compounds of the present invention.

c-Src = c-Src (Homo sapiens, UniProt P12931); test: IC50 inhibitory activity against c-Src kinase
Method: as §1

LCK = LCK (Homo sapiens, UniProt P06239); test: IC50 inhibitory activity against LCK kinase
Method: as §1

LCK, sequence (P06239 whole entry): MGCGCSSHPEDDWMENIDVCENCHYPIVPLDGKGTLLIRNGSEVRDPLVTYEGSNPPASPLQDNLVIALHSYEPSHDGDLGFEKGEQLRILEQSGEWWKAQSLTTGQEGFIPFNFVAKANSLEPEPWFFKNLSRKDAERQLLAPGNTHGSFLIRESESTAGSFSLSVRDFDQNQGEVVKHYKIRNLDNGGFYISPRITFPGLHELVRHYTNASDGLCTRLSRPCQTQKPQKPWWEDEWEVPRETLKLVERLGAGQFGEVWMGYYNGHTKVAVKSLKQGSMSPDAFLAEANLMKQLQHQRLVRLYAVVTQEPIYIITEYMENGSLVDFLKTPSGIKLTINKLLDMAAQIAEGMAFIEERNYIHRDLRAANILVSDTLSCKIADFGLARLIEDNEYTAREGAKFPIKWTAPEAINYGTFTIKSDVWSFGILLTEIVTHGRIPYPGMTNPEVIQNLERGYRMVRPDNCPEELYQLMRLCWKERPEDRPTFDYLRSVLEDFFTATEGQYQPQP
c-Src, sequence (P12931 whole entry): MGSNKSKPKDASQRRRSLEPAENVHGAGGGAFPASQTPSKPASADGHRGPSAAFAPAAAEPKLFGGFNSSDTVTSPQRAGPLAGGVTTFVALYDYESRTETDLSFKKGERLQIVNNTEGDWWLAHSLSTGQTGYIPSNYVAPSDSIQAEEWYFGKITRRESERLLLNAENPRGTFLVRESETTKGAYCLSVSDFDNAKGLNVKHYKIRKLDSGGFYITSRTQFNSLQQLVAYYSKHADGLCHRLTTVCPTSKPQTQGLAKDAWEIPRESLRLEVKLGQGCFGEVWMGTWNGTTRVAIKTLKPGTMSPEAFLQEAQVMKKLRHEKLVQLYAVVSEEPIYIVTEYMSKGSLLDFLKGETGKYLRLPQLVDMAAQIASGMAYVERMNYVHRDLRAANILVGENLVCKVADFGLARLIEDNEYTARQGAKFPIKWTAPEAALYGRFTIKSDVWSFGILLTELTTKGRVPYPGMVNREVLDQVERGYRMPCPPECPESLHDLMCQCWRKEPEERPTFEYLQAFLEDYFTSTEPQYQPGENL
ABL1, sequence (P00519 whole entry): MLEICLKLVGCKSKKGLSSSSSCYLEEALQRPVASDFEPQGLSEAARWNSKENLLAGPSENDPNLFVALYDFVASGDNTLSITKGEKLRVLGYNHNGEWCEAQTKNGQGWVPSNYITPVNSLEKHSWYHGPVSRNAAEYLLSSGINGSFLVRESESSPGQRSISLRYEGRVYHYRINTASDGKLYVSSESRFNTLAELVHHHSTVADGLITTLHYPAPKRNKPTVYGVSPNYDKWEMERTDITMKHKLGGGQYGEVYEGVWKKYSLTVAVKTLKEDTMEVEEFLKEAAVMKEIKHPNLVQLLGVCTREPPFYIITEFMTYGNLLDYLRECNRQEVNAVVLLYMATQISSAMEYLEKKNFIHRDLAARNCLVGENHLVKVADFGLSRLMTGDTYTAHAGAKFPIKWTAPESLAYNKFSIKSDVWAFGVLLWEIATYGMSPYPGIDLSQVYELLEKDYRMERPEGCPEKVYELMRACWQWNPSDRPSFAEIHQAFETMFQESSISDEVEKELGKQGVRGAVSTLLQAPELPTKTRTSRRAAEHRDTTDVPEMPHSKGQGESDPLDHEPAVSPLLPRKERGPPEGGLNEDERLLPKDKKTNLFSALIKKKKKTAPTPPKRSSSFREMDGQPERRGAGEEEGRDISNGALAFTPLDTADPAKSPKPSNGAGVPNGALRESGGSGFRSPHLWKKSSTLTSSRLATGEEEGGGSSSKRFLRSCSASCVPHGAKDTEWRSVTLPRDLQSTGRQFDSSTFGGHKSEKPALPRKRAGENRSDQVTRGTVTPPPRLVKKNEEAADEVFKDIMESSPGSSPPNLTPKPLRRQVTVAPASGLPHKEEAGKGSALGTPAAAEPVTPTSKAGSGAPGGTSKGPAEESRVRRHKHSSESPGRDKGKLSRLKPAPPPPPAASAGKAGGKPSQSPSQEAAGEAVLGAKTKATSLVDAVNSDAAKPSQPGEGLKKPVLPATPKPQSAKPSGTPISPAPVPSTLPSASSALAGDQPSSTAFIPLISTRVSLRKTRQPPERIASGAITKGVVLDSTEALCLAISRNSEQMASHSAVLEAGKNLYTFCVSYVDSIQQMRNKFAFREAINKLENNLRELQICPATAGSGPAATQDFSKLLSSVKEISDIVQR

| SMILES | IC50 (ABL1) [µM] | IC50 (c-Src; read-out: c-Src IC50) [µM] | IC50 (LCK; read-out: LCK IC50) [µM] | IC50 (c-Src) [µM] | IC50 (LCK) [µM] |
| --- | --- | --- | --- | --- | --- |
| CC[C@H](C)[C@H](NC(=O)c1ccc(C)c(N2Cc3cnc(Nc4ccc(C)nc4)nc3N(C)C2=O)c1)C(=O)N1CCC[C@H]1C(=O)NC(C)(C)C(=O)N[C@@H](CC(C)C)C(=O)N(C)C [Example 16, (S)—N-(1-(((S)-1-(dimethylamino)-4-methyl-1-oxopentan-2-yl)amino)-2-methyl-1-oxopropan-2-yl)-1-((4-methyl-3-(1-methyl-7-((6-methylpyridin-3-yl)amino)-2-oxo-1,4-dihydropyrimido[4,5-d]pyrimidin-3(2H)-yl)benzoyl)-L-isoleucyl)pyrrolidine-2-carboxamide] (X1-IP[Aib]L-NMe2) | 0.001 to 0.2 | 0.2 to 0.4 | 0.001 to 0.2 | – | – |
| CC1=N[C@@H](CC(C)C)C(=O)N(Cc2ccccc2)c2cc(C(=O)Nc3ccc(C)c(N4Cc5cnc(Nc6ccc(C)nc6)nc5N(C)C4=O)c3)ccc21 [Example 41, (S)-1-benzyl-3-isobutyl-5-methyl-N-(4-methyl-3-(1-methyl-7-((6-methylpyridin-3-yl)amino)-2-oxo-1,4-dihydropyrimido[4,5-d]pyrimidin-3(2H)-yl)phenyl)-2-oxo-2,3-dihydro-1H-benzo[e][1,4]diazepine-8-carboxamide] | – | 0.001 to 0.2 | 0.001 to 0.2 | – | – |
| Cc1ccc(Nc2ncc3c(n2)N(C)C(=O)N(c2cc(NC(=O)c4ccc5c(c4)NC(=O)[C@H](Cc4ccc(F)cc4)N=C5c4ccccc4)ccc2C)C3)cn1 [Example 28, (S)-3-(4-fluorobenzyl)-N-(4-methyl-3-(1-methyl-7-((6-methylpyridin-3-yl)amino)-2-oxo-1,4-dihydropyrimido[4,5-d]pyrimidin-3(2H)-yl)phenyl)-2-oxo-5-phenyl-2,3-dihydro-1H-benzo[e][1,4]diazepine-8-carboxamide] | – | 0.001 to 0.2 | 0.001 to 0.2 | – | – |
| Cc1ccc(Nc2ncc3c(n2)N(C)C(=O)N(c2cc(C(=O)N[C@H](C(=O)N4CCC[C@@H]4C(=O)NCC(=O)N[C@@H](CC(C)C)C(=O)N(C)C)C(C)C)ccc2C)C3)cn1 [Example 5, (R)—N-(2-(((S)-1-(dimethylamino)-4-methyl-1-oxopentan-2-yl)amino)-2-oxoethyl)-1-((4-methyl-3-(1-methyl-7-((6-methylpyridin-3-yl)amino)-2-oxo-1,4-dihydropyrimido[4,5-d]pyrimidin-3(2H)-yl)benzoyl)-L-valyl)pyrrolidine-2-carboxamide] (X1-V[dP]GL-NMe2) | – | – | – | > 0.6 | 0.001 to 0.2 |
| C=CCCC1=N[C@@H](CC(=O)Nc2ccc(C)c(N3Cc4cnc(Nc5ccc(C)nc5)nc4N(C)C3=O)c2)C(=O)N(C)c2ccccc21 [Example 45, (S)-2-(5-(but-3-en-1-yl)-1-methyl-2-oxo-2,3-dihydro-1H-benzo[e][1,4]diazepin-3-yl)-N-(4-methyl-3-(1-methyl-7-((6-methylpyridin-3-yl)amino)-2-oxo-1,4-dihydropyrimido[4,5-d]pyrimidin-3(2H)-yl)phenyl)acetamide] | – | 0.001 to 0.2 | 0.001 to 0.2 | – | – |
| Cc1ccc(Nc2ncc3c(n2)N(C)C(=O)N(c2cc(C(=O)N[C@@H](Cc4ccccc4)C(=O)N4CCC[C@@H]4C(=O)N[C@H](C(=O)N[C@H](C)c4ccccc4)C(C)C)ccc2C)C3)cn1 [Example 7, (R)—N—((S)-3-methyl-1-oxo-1-(((R)-1-phenylethyl)amino)butan-2-yl)-1-((4-methyl-3-(1-methyl-7-((6-methylpyridin-3-yl)amino)-2-oxo-1,4-dihydropyrimido[4,5-d]pyrimidin-3(2H)-yl)benzoyl)-L-phenylalanyl)pyrrolidine-2-carboxamide] | – | 0.4 to 0.6 | 0.001 to 0.2 | – | – |
| Cc1ccc(Nc2ncc3c(n2)N(C)C(=O)N(c2cc(C(=O)N[C@H](C(=O)N4CCC[C@H]4C(=O)NC4(C(=O)N[C@@H](CC(C)C)C(=O)N(C)C)CCC4)C(C)C)ccc2C)C3)cn1 [Example 12, (S)—N-(1-(((S)-1-(dimethylamino)-4-methyl-1-oxopentan-2-yl)carbamoyl)cyclobutyl)-1-((4-methyl-3-(1-methyl-7-((6-methylpyridin-3-yl)amino)-2-oxo-1,4-dihydropyrimido[4,5-d]pyrimidin-3(2H)-yl)benzoyl)-L-valyl)pyrrolidine-2-carboxamide] (X1-VP[Ac4c]L-NMe2) | – | – | – | > 0.6 | 0.001 to 0.2 |
| Cc1ccc(Nc2ncc3c(n2)N(C)C(=O)N(c2cc(C(=O)N[C@H](C(=O)N4CCC[C@@H]4C(=O)N[C@H](C(=O)N[C@H](C)c4ccccc4)C(C)C)C(C)C)ccc2C)C3)cn1 [Example 8, (R)—N—((S)-3-methyl-1-oxo-1-(((R)-1-phenylethyl)amino)butan-2-yl)-1-((4-methyl-3-(1-methyl-7-((6-methylpyridin-3-yl)amino)-2-oxo-1,4-dihydropyrimido[4,5-d]pyrimidin-3(2H)-yl)benzoyl)-L-valyl)pyrrolidine-2-carboxamide] | – | > 0.6 | 0.4 to 0.6 | – | – |
| Cc1ccc(Nc2ncc3c(n2)N(C)C(=O)N(c2cc(C(=O)N[C@@H](C)C(=O)N4CCC[C@H]4C(=O)NC(C)(C)C(=O)N[C@H](C(=O)N(C)C)C(C)C)ccc2C)C3)cn1 [Example 25, (S)—N-(1-(((S)-1-(dimethylamino)-3-methyl-1-oxobutan-2-yl)amino)-2-methyl-1-oxopropan-2-yl)-1-((4-methyl-3-(1-methyl-7-((6-methylpyridin-3-yl)amino)-2-oxo-1,4-dihydropyrimido[4,5-d]pyrimidin-3(2H)-yl)benzoyl)-L-alanyl)pyrrolidine-2-carboxamide] (X1-AP[Aib]V-NMe2) | – | – | – | > 0.6 | 0.2 to 0.4 |
| Cc1ccc(Nc2ncc3c(n2)N(C)C(=O)N(c2cc(C(=O)N[C@H](C(=O)N4CCC[C@H]4C(=O)NC(C)(C)C(=O)NCC(=O)N(C)C)C(C)C)ccc2C)C3)cn1 [Example 14, (S)—N-(1-((2-(dimethylamino)-2-oxoethyl)amino)-2-methyl-1-oxopropan-2-yl)-1-((4-methyl-3-(1-methyl-7-((6-methylpyridin-3-yl)amino)-2-oxo-1,4-dihydropyrimido[4,5-d]pyrimidin-3(2H)-yl)benzoyl)-L-valyl)pyrrolidine-2-carboxamide] (X1-VP[Aib]G-NMe2) | – | – | – | > 0.6 | 0.001 to 0.2 |
| Cc1ccc(Nc2ncc3c(n2)N(C)C(=O)N(c2cc(NC(=O)[C@H](Cc4c[nH]c5ccccc45)NC(=O)c4ccc([N+](=O)[O-])c(OCC(C)C)c4)ccc2C)C3)cn1 [Example 55] | > 0.6 | – | – | – | – |
| Cc1ccc(Nc2ncc3c(n2)N(C)C(=O)N(c2cc(NC(=O)c4ccc5c(c4)N(CC(=O)NCc4ccccc4)C(=O)[C@H](CC(C)C)N=C5c4ccccc4)ccc2C)C3)cn1 [Example 43, (S)-1-(2-(benzylamino)-2-oxoethyl)-3-isobutyl-N-(4-methyl-3-(1-methyl-7-((6-methylpyridin-3-yl)amino)-2-oxo-1,4-dihydropyrimido[4,5-d]pyrimidin-3(2H)-yl)phenyl)-2-oxo-5-phenyl-2,3-dihydro-1H-benzo[e][1,4]diazepine-8-carboxamide] | – | 0.001 to 0.2 | 0.001 to 0.2 | – | – |
| Cc1ccc(Nc2ncc3c(n2)N(C)C(=O)N(c2cc(NC(=O)c4ccc5c(c4)N(CC(C)C)C(=O)[C@H](CC(C)C)N=C5c4ccccc4)ccc2C)C3)cn1 [Example 39, (S)-1,3-diisobutyl-N-(4-methyl-3-(1-methyl-7-((6-methylpyridin-3-yl)amino)-2-oxo-1,4-dihydropyrimido[4,5-d]pyrimidin-3(2H)-yl)phenyl)-2-oxo-5-phenyl-2,3-dihydro-1H-benzo[e][1,4]diazepine-8-carboxamide] | – | 0.4 to 0.6 | 0.001 to 0.2 | – | – |
| Cc1ccc(Nc2ncc3c(n2)N(C)C(=O)N(c2cc(C(=O)N[C@H](C(=O)N4CCC[C@H]4C(=O)NC4(C(=O)N[C@@H](CC(C)C)C(=O)N(C)C)CC4)C(C)C)ccc2C)C3)cn1 [Example 4, (S)—N-(1-(((S)-1-(dimethylamino)-4-methyl-1-oxopentan-2-yl)carbamoyl)cyclopropyl)-1-((4-methyl-3-(1-methyl-7-((6-methylpyridin-3-yl)amino)-2-oxo-1,4-dihydropyrimido[4,5-d]pyrimidin-3(2H)-yl)benzoyl)-L-valyl)pyrrolidine-2-carboxamide] (X1-VP[Ac3c]L-NMe2) | – | – | – | 0.2 to 0.4 | 0.001 to 0.2 |
| Cc1ccc(Nc2ncc3c(n2)N(C)C(=O)N(c2cc(C(=O)N[C@H](C(=O)N4CCC[C@H]4C(=O)NCC(=O)N[C@@H](CC(C)C)C(=O)N(C)C)C(C)C)ccc2C)C3)cn1 [Example 6, (S)—N-(2-(((S)-1-(dimethylamino)-4-methyl-1-oxopentan-2-yl)amino)-2-oxoethyl)-1-((4-methyl-3-(1-methyl-7-((6-methylpyridin-3-yl)amino)-2-oxo-1,4-dihydropyrimido[4,5-d]pyrimidin-3(2H)-yl)benzoyl)-L-valyl)pyrrolidine-2-carboxamide] (X1-VPGL-NMe2) | – | – | – | > 0.6 | 0.001 to 0.2 |
| Cc1ccc(Nc2ncc3c(n2)N(C)C(=O)N(c2cc(C(=O)N[C@H](C(=O)N4CCC[C@@H]4C(=O)NC4(C(=O)N[C@@H](CC(C)C)C(=O)N(C)C)CC4)C(C)C)ccc2C)C3)cn1 [Example 3, (R)—N-(1-(((S)-1-(dimethylamino)-4-methyl-1-oxopentan-2-yl)carbamoyl)cyclopropyl)-1-((4-methyl-3-(1-methyl-7-((6-methylpyridin-3-yl)amino)-2-oxo-1,4-dihydropyrimido[4,5-d]pyrimidin-3(2H)-yl)benzoyl)-L-valyl)pyrrolidine-2-carboxamide] (X1-V[dP][Ac3c]L-NMe2) | – | – | – | > 0.6 | 0.001 to 0.2 |
| C=CCCC1=N[C@@H](CC(=O)Nc2ccc(C)c(N3Cc4cnc(Nc5ccc(C)nc5)nc4N(C)C3=O)c2)C(=O)Nc2ccccc21 [Example 44, (S)-2-(5-(but-3-en-1-yl)-2-oxo-2,3-dihydro-1H-benzo[e][1,4]diazepin-3-yl)-N-(4-methyl-3-(1-methyl-7-((6-methylpyridin-3-yl)amino)-2-oxo-1,4-dihydropyrimido[4,5-d]pyrimidin-3(2H)-yl)phenyl)acetamide] | – | 0.001 to 0.2 | 0.001 to 0.2 | – | – |
